Reference: ChEMBL document CHEMBL1149205, “Biological evaluation of substituted quinolines” (Bioorg Med Chem Lett, 2004)

How the values were obtained:
Trypanosoma brucei = assay: In vitro anti protozoal activity against Trypanosoma brucei strain S427 was determined; assay type: functional, organism-based
[1] = system: Human T-cell leukemia virus type I; assay: Inhibitory activity against proliferation of HTLV-1 transformed cell lines (HUT-102) at 10 uM; assay type: functional; details: Primate T-lymphotropic virus 1, HuT-102
Homo sapiens = species on record: Homo sapiens; assay: Cytotoxicity in macrophages; assay type: functional
MRC5 = assay: Cytotoxicity in MRC-5 cells; assay type: functional, cell-based; details: Homo sapiens
Leishmania amazonensis = assay: In vitro anti protozoal activity against Leishmania amazonensis strain MHOM/ET/L82/LV9 was determined; assay type: functional, organism-based
Plasmodium falciparum [2] = assay: In vitro anti-protozoal activity against Plasmodium falciparum Ghana strain; assay type: functional, organism-based
Leishmania infantum = assay: In vitro anti protozoal activity against Leishmania infantum strain MHOM-ET-67/L82 was determined; assay type: functional, organism-based
Trypanosoma cruzi = assay: In vitro anti protozoal activity against Trypanosoma cruzi strain Tulahuen CL2 was determined; assay type: functional, organism-based
Plasmodium falciparum [3] = assay: In vitro anti-protozoal activity against Plasmodium falciparum W2; assay type: functional, organism-based

For `OC(Cc1ccc2ccccc2n1)c1ccco1` (centres undefined), the IC50 (Trypanosoma brucei) was > 32 µM, the inhibition at 10 µM [1] was 0% and the IC50 (Homo sapiens) was > 32 µM. For the same compound, the IC50 (MRC5) was > 32 µM, the IC50 (Leishmania amazonensis) was > 32 µM and the IC50 (Plasmodium falciparum [2]) was > 32 µM. For the same compound, the IC50 (Leishmania infantum; Leishmania infantum) was > 32 µM, the IC50 (Trypanosoma cruzi) was > 32 µM and the IC50 (Plasmodium falciparum [3]) was > 32 µM.

For `Cc1ccc(C(=O)Nc2ccc(S(=O)(=O)O)c3cc(S(=O)(=O)O)cc(S(=O)(=O)O)c23)cc1NC(=O)c1cccc(NC(=O)Nc2cccc(C(=O)Nc3cc(C(=O)Nc4ccc(S(=O)(=O)O)c5cc(S(=O)(=O)O)cc(S(=O)(=O)O)c45)ccc3C)c2)c1` [SURAMIN], the IC50 (Trypanosoma brucei) was 0.09 µM.

`CN(C)c1ccc(C(O)Cc2ccc3ccccc3n2)cc1` (centres undefined) was tested, and the IC50 (Trypanosoma brucei) was > 32 µM, the inhibition at 10 µM [1] was 0% and the IC50 (Homo sapiens) was > 32 µM. For the same compound, the IC50 (MRC5) was > 32 µM, the IC50 (Leishmania amazonensis) was > 32 µM and the IC50 (Plasmodium falciparum [2]) was > 32 µM. For the same compound, the IC50 (Leishmania infantum; Leishmania infantum) was > 32 µM, the IC50 (Trypanosoma cruzi) was > 32 µM and the IC50 (Plasmodium falciparum [3]) was > 32 µM.

`CC1CS(=O)(=O)CCN1/N=C/c1ccc([N+](=O)[O-])o1` (centres undefined) [NIFURTIMOX] showed an IC50 (Trypanosoma cruzi) of 0.45 µM.

With `Br/C=C/c1ccc2ccccc2n1` the IC50 (Trypanosoma brucei) was 1 µM, the IC50 (Homo sapiens) was 13 µM and the IC50 (MRC5) was > 32 µM. The IC50 (Leishmania amazonensis) was 3 µM, the IC50 (Plasmodium falciparum [2]) was > 32 µM and the IC50 (Leishmania infantum; Leishmania infantum) was 2 µM. The IC50 (Trypanosoma cruzi) was 0.15 µM.

`CCCCCCCCCCCCCCCCOP(=O)([O-])OCC[N+](C)(C)C` [MILTEFOSINE] showed an IC50 (Homo sapiens) of 12.5 µM and an IC50 (Leishmania amazonensis) of 3.12 µM.

`O=C/C=C/c1ccc2ccccc2n1` gave an IC50 (Trypanosoma brucei) of 19 µM, an inhibition at 10 µM [1] of 34% and an IC50 (Homo sapiens) of 9 µM. For the same compound, the IC50 (MRC5) was 16 µM, the IC50 (Leishmania amazonensis) was 4 µM and the IC50 (Plasmodium falciparum [2]) was 31 µM. It also gave an IC50 (Leishmania infantum; Leishmania infantum) of 2 µM and an IC50 (Trypanosoma cruzi) of 5 µM.

In the case of `COc1ccc(/C=C/c2ccc3ccccc3n2)c(OC)c1`, the IC50 (Trypanosoma brucei) is reported as 18 µM, the inhibition at 10 µM [1] is reported as 0% and the IC50 (Homo sapiens) is reported as > 32 µM. For the same compound, the IC50 (MRC5) was > 32 µM, the IC50 (Leishmania amazonensis) was > 32 µM and the IC50 (Plasmodium falciparum [2]) was > 32 µM. For the same compound, the IC50 (Leishmania infantum; Leishmania infantum) was > 32 µM, the IC50 (Trypanosoma cruzi) was > 32 µM and the IC50 (Plasmodium falciparum [3]) was 30 µM.

For `O=C(/C=C/c1ccc2ccccc2n1)N1CCOCC1`, the IC50 (Trypanosoma brucei) was > 32 µM, the inhibition at 10 µM [1] was 0% and the IC50 (Homo sapiens) was > 32 µM. For the same compound, the IC50 (MRC5) was > 32 µM, the IC50 (Leishmania amazonensis) was > 32 µM and the IC50 (Plasmodium falciparum [2]) was 12 µM. It also gave an IC50 (Leishmania infantum; Leishmania infantum) of 18 µM, an IC50 (Trypanosoma cruzi) of 13 µM and an IC50 (Plasmodium falciparum [3]) of 16 µM.

With `Fc1ccccc1NCc1ccc2ccccc2n1` the IC50 (Trypanosoma brucei) was > 32 µM, the inhibition at 10 µM [1] was 0% and the IC50 (Homo sapiens) was > 32 µM. The IC50 (MRC5) was > 32 µM, the IC50 (Leishmania amazonensis) was > 32 µM and the IC50 (Plasmodium falciparum [2]) was > 32 µM. For the same compound, the IC50 (Leishmania infantum; Leishmania infantum) was > 32 µM, the IC50 (Trypanosoma cruzi) was > 32 µM and the IC50 (Plasmodium falciparum [3]) was > 32 µM.

`COc1cc(NCc2ccc3ccccc3n2)cc(OC)c1OC` was tested, and the IC50 (Trypanosoma brucei) was > 32 µM, the inhibition at 10 µM [1] was 0% and the IC50 (Homo sapiens) was > 32 µM. The IC50 (MRC5) was > 32 µM, the IC50 (Leishmania amazonensis) was > 32 µM and the IC50 (Plasmodium falciparum [2]) was > 32 µM. The IC50 (Leishmania infantum; Leishmania infantum) was > 32 µM, the IC50 (Trypanosoma cruzi) was > 32 µM and the IC50 (Plasmodium falciparum [3]) was > 32 µM.

For `O=[N+]([O-])c1ccc(/C=C/c2ccc3ccccc3n2)cc1`, the IC50 (Trypanosoma brucei) was > 32 µM, the inhibition at 10 µM [1] was 0% and the IC50 (Homo sapiens) was > 32 µM. For the same compound, the IC50 (MRC5) was > 32 µM, the IC50 (Leishmania amazonensis) was > 32 µM and the IC50 (Plasmodium falciparum [2]) was > 32 µM. The IC50 (Leishmania infantum; Leishmania infantum) was > 32 µM, the IC50 (Trypanosoma cruzi) was 28 µM and the IC50 (Plasmodium falciparum [3]) was > 32 µM.

With `COc1ccc(C(O)Cc2ccc3ccccc3n2)cc1OC` (centres undefined) the IC50 (Trypanosoma brucei) was > 32 µM, the inhibition at 10 µM [1] was 0% and the IC50 (Homo sapiens) was > 32 µM. For the same compound, the IC50 (MRC5) was > 32 µM, the IC50 (Leishmania amazonensis) was > 32 µM and the IC50 (Plasmodium falciparum [2]) was > 32 µM. For the same compound, the IC50 (Leishmania infantum; Leishmania infantum) was > 32 µM, the IC50 (Trypanosoma cruzi) was > 32 µM and the IC50 (Plasmodium falciparum [3]) was > 32 µM.

`OC(Cc1ccc2ccccc2n1)c1ccc(F)cc1` (centres undefined) was tested, and the IC50 (Trypanosoma brucei) was > 32 µM, the inhibition at 10 µM [1] was 0% and the IC50 (Homo sapiens) was > 32 µM. For the same compound, the IC50 (MRC5) was > 32 µM, the IC50 (Leishmania amazonensis) was > 32 µM and the IC50 (Plasmodium falciparum [2]) was 4 µM. For the same compound, the IC50 (Leishmania infantum; Leishmania infantum) was > 32 µM, the IC50 (Trypanosoma cruzi) was > 32 µM and the IC50 (Plasmodium falciparum [3]) was 1 µM.

In the case of `O=[N+]([O-])c1ccc(C(O)Cc2ccc3ccccc3n2)cc1` (centres undefined), the IC50 (Trypanosoma brucei) is reported as > 32 µM, the inhibition at 10 µM [1] is reported as 10% and the IC50 (Homo sapiens) is reported as > 32 µM. The IC50 (MRC5) was > 32 µM, the IC50 (Leishmania amazonensis) was > 32 µM and the IC50 (Plasmodium falciparum [2]) was 15 µM. For the same compound, the IC50 (Leishmania infantum; Leishmania infantum) was > 32 µM, the IC50 (Trypanosoma cruzi) was > 32 µM and the IC50 (Plasmodium falciparum [3]) was 6 µM.

In the case of `Fc1ccc(/C=C/c2ccc3ccccc3n2)cc1`, the IC50 (Trypanosoma brucei) is reported as > 32 µM, the inhibition at 10 µM [1] is reported as 26% and the IC50 (Homo sapiens) is reported as > 32 µM. The IC50 (MRC5) was > 32 µM, the IC50 (Leishmania amazonensis) was > 32 µM and the IC50 (Plasmodium falciparum [2]) was > 32 µM. For the same compound, the IC50 (Leishmania infantum; Leishmania infantum) was > 32 µM, the IC50 (Trypanosoma cruzi) was 22 µM and the IC50 (Plasmodium falciparum [3]) was > 32 µM.

In the case of `O=[N+]([O-])/C=C/c1ccc2ccccc2n1`, the IC50 (Trypanosoma brucei) is reported as 18 µM, the inhibition at 10 µM [1] is reported as 76% and the IC50 (Homo sapiens) is reported as > 32 µM. For the same compound, the IC50 (MRC5) was 22 µM, the IC50 (Leishmania amazonensis) was > 32 µM and the IC50 (Plasmodium falciparum [2]) was 16 µM. The IC50 (Leishmania infantum; Leishmania infantum) was > 8 µM, the IC50 (Trypanosoma cruzi) was 1 µM and the IC50 (Plasmodium falciparum [3]) was 14 µM.

With `COc1ccc(/C=C/c2ccc3ccccc3n2)cc1OC` the IC50 (Trypanosoma brucei) was 26 µM, the inhibition at 10 µM [1] was 0% and the IC50 (Homo sapiens) was > 32 µM. The IC50 (MRC5) was > 32 µM, the IC50 (Leishmania amazonensis) was > 32 µM and the IC50 (Plasmodium falciparum [2]) was > 32 µM. The IC50 (Leishmania infantum; Leishmania infantum) was 22 µM, the IC50 (Trypanosoma cruzi) was > 32 µM and the IC50 (Plasmodium falciparum [3]) was > 32 µM.

In the case of `O=C(/C=C/c1ccc2ccccc2n1)N1CCCCC1`, the IC50 (Trypanosoma brucei) is reported as > 32 µM, the inhibition at 10 µM [1] is reported as 0% and the IC50 (Homo sapiens) is reported as > 32 µM. The IC50 (MRC5) was > 32 µM, the IC50 (Leishmania amazonensis) was 18 µM and the IC50 (Plasmodium falciparum [2]) was 15 µM. The IC50 (Leishmania infantum; Leishmania infantum) was 16 µM, the IC50 (Trypanosoma cruzi) was 17 µM and the IC50 (Plasmodium falciparum [3]) was 17 µM.

MEGLUMINE ANTIMONATE showed an IC50 (Leishmania infantum) of 7.15 µM.

Work on `CN(C)c1ccc(/C=C/c2ccc3ccccc3n2)cc1` yielded an IC50 (Trypanosoma brucei) of 6 µM, an inhibition at 10 µM [1] of 26% and an IC50 (Homo sapiens) of 16 µM. For the same compound, the IC50 (MRC5) was > 32 µM, the IC50 (Leishmania amazonensis) was 16 µM and the IC50 (Plasmodium falciparum [2]) was > 32 µM. For the same compound, the IC50 (Leishmania infantum; Leishmania infantum) was > 32 µM, the IC50 (Trypanosoma cruzi) was 17 µM and the IC50 (Plasmodium falciparum [3]) was > 32 µM.

In the case of `CN1CCN(C(=O)/C=C/c2ccc3ccccc3n2)CC1`, the IC50 (Trypanosoma brucei) is reported as > 32 µM, the inhibition at 10 µM [1] is reported as 0% and the IC50 (Homo sapiens) is reported as > 32 µM. The IC50 (MRC5) was > 32 µM, the IC50 (Leishmania amazonensis) was > 32 µM and the IC50 (Plasmodium falciparum [2]) was > 32 µM. The IC50 (Leishmania infantum; Leishmania infantum) was > 32 µM, the IC50 (Trypanosoma cruzi) was > 32 µM and the IC50 (Plasmodium falciparum [3]) was > 32 µM.
